Key:
Assay type in all cases: cell-based, human
MOLM-13 (MLL-AF9) = experiment: Combination proliferation study with Compound A2 (ATP/CellTiter-Glo, Chou-Talalay combination index); conditions: for Combination with Compound A2, MOLM13: Table 5
Method: (§1) The acute myelogenous leukemia cell lines MV4-11 (MLL-AF4) and MOLM-13 (MLL-AF9) were obtained from American Type Culture Collection (ATCC; Rockville, Md.) and Deutsche Sammlung von Mikroorganismen and Zellkulturen (DSMZ; Braunschweig, Germany) respectively.
(§2) Studies were performed using MLL-rearranged cell lines in vitro to evaluate the anti-proliferative effect of a combination of two agents together on cell growth. Initial proliferation studies were performed to determine the IC50 of a given compound in each cell line. The cell counts were measured by ATP quantitation using the Promega Cell Titer Glo kit and luminescence values corresponded to the amount of ATP in a given well.
(§3) Compounds were evaluated for synergy in the co-treatment phase by testing the compounds in a concentration range which was bracketed around their IC50 values. The compounds were plated to a 96 well plate in a matrix format (FIG. 3) which includes increasing concentrations of each drug in the combination in a constant ratio, in addition to the effect of each compound alone in the study. Cells were seeded and grown in the log-linear phase for 3 or 7 days in the co-treatment phase. Minimum inhibition (DMSO alone) controls were used in each plate to calculate fraction affected (Fa) of a test well. DMSO concentration was kept at 0.1% v/v.
(§4) The drug combination analysis was performed utilizing the Chou-Talalay method Synergy was determined using the software package Calcusyn by Biosoft. The combination index (CI) is a quantitative term used to describe the level of synergy or antagonism in a given test system. A combination index less than one indicates synergy, and a CI greater than one indicates antagonism. Further, strong synergism is achieved when the CI value falls below 0.3.
(§5) Graphs representing values of combination index (CI) versus Fractional effect (Fa) known as Fa-CI plots were generated and synergy was evaluated. Drug synergy was statistically defined by CI values less than 1, antagonism by CI>1 and additive effect by CI equal to 1.
Graphs representing values of combination index (CI) versus Fractional effect (Fa) known as Fa-CI plots were generated and synergy was evaluated. Drug synergy was statistically defined by CI values less than 1, antagonism by CI>1 and additive effect by CI equal to 1. […]
Cell viability was measured via ATP content using CellTiter-Glo® (Promega).
Proliferation studies were performed using MOLM-13, MV4-11 and SKM-1 cell lines in vitro to evaluate the cancer cell killing effect of a combination of two agents together on cell growth. Initial proliferation studies were performed to determine the IC50 values of a given compound in each cell line. The cell counts were measured by ATP quantitation using the Promega Cell Titer Glo kit and luminescence values correspond to the amount of ATP in a given well. […]
Compounds evaluated for synergy in the co-treatment phase were tested in a range which was bracketed around the IC50's.

MV4-11 (MLL-AF4) = experiment: as above; conditions: for Combination with Compound A2, MV4-11 (MLL-AF4) / Combination with Compound A2, MV4-11: 7 Day Cotreatment Model; for Combination with Compound A2, MV4-11 (MLL-AF4): Table 4; for Combination of Compound A2 and anti-cancer agent, MV4-11: 7 Day Cotreatment; for Combination with Compound A2, MV4-11: Table 5
Method: as §1, §2, §3, §4, §5, §5
The HP-D300 digital dispenser (Tecan) was used to dispense compounds in a combinatorial matrix. […] Cell viability was measured via ATP content using CellTiter-Glo® (Promega).
Viability was determined using CellTiter-Glo® (Promega).
Proliferation studies were performed using MOLM-13, MV4-11 and SKM-1 cell lines in vitro to evaluate the cancer cell killing effect of a combination of two agents together on cell growth. Initial proliferation studies were performed to determine the IC50 values of a given compound in each cell line. The cell counts were measured by ATP quantitation using the Promega Cell Titer Glo kit and luminescence values correspond to the amount of ATP in a given well.
These studies were performed to evaluate both the combinatorial effect of compounds on cell killing and the durability of the effect by washing out one of the agents.
Compounds evaluated for synergy in the co-treatment phase were tested in a range which was bracketed around the IC50's. The compounds were plated to a 96 well plate in a matrix format which includes increasing concentrations of each drug in the combination in a constant ratio, in addition to the effect of each compound alone in the study.

MOLM-13 cells = experiment: EPZ-5676 300 nM 7-day pre-treatment, then second compound 72 hours, ATPLite, IC50 shift (Example 6); conditions: 300 nM EPZ-5676 or DMSO 7-day pre-treatment, then 2nd compound 72 hours, Synergy = IC50 of 2nd compound decreased by 2-fold or more vs DMSO control
Method: Cells were then equilibrated in incubators for 24 hours before treatment with a second compound. Treated assay plates were incubated with a second compound for 72 hours. After this time, plates were developed for endpoint analysis using ATPLite to measure ATP content, which is used as an indicator of cell viability.
“N/D” means that IC50 of the second compound could not be determined for both conditions.

[1] = 7 Day Cotreatment Model, Table 4

SMILES | Combination with Compound A2, MOLM-13 (MLL-AF9) (MOLM-13 (MLL-AF9); [1]) | Combination with Compound A2, MV4-11 (MLL-AF4) (MV4-11 (MLL-AF4)) | further results
O=C(CCCCCCC(=O)Nc1ccccc1)NO [Vorinostat] | Additive/Synergy | Antagonistic (antagonism by CI>1) | 
CO[C@@H]1[C@H](N(C)C(=O)c2ccccc2)C[C@H]2O[C@]1(C)n1c3ccccc3c3c4c(c5c6ccccc6n2c5c31)C(=O)NC4 [Midostaurin] |  | Synergy (Drug synergy was statistically defined by CI values less than 1) | 
CC1(C)CCC(c2ccc(Cl)cc2)=C(CN2CCN(c3ccc(C(=O)NS(=O)(=O)c4ccc(N[C@H](CCN5CCOCC5)CSc5ccccc5)c(S(=O)(=O)C(F)(F)F)c4)cc3)CC2)C1 [Navitoclax] | Synergy (Drug synergy was statistically defined by CI values less than 1) | Synergy (Drug synergy was statistically defined by CI values less than 1) | Combination of Compound A2 and anti-cancer agent, MOLM-13 (MOLM-13 (MLL-AF9); 7 Day Cotreatment): synergy; Combination of Compound A2 and anti-cancer agent, MV4-11 (MV4-11 (MLL-AF4)): synergy
CC(C)(C)c1cc(NC(=O)Nc2ccc(-c3cn4c(n3)sc3cc(OCCN5CCOCC5)ccc34)cc2)no1 [Quizartinib] | Synergy (Drug synergy was statistically defined by CI values less than 1) |  | Combination of Compound A2 and anti-cancer agent, MV4-11 (MV4-11 (MLL-AF4)): synergy
C[C@@H]1COCCN1c1cc(C2(S(C)(=O)=O)CC2)nc(-c2cccc3[nH]ccc23)n1 [AZ20] |  |  | Combination with Compound A2, MOLM13 (MOLM-13 (MLL-AF9); 7 Day Cotreatment Model): Synergy (Drug synergy was statistically defined by CI values less than 1)
Cn1cncc1[C@@](N)(c1ccc(Cl)cc1)c1ccc2c(c1)c(-c1cccc(Cl)c1)cc(=O)n2C [Tipifarnib] |  |  | Combination with Compound A2, MV4-11 (MV4-11 (MLL-AF4)): Synergy (Drug synergy was statistically defined by CI values less than 1); MOLM-13 (summary of combination study: EPZ-5676 + 2nd compound) (MOLM-13 cells): Synergy (considered synergistic if the IC50 value of the second compound decreased by 2-fold or more when EPZ-5676 was added as compared to the DMSO control)
C=CC(=O)N1CCC[C@@H](n2nc(-c3ccc(Oc4ccccc4)cc3)c3c(N)ncnc32)C1 [Ibrutinib] |  | Synergy (Drug synergy was statistically defined by CI values less than 1) | 
Nc1ncn([C@H]2C[C@H](O)[C@@H](CO)O2)c(=O)n1 [Decitabine] | Synergy (Drug synergy was statistically defined by CI values less than 1) | Synergy (Drug synergy was statistically defined by CI values less than 1) | Combination with Compound A2, MOLM-13 (MLL-AF9) (MOLM-13 (MLL-AF9); Table 2, Example 3): Synergy (Drug synergy was statistically defined by CI values less than 1); Combination with Compound A2, MV4-111 MLL-AF4 (MV4-11 (MLL-AF4); Table 2, Example 3): Synergy (Drug synergy was statistically defined by CI values less than 1)
Nc1nc(Cl)nc2c1ncn2[C@@H]1O[C@H](CO)[C@@H](O)[C@@H]1F [Clofarabine] | Synergy (Drug synergy was statistically defined by CI values less than 1) | Synergy (Drug synergy was statistically defined by CI values less than 1) | 
Cc1[nH]c2ccccc2c1CCNCc1ccc(/C=C/C(=O)NO)cc1 [Panobinostat] | Synergy (Drug synergy was statistically defined by CI values less than 1) | Antagonistic (antagonism by CI>1) | 
CC1(C)CCC(CN2CCN(c3ccc(C(=O)NS(=O)(=O)c4ccc(NCC5CCOCC5)c([N+](=O)[O-])c4)c(Oc4cnc5[nH]ccc5c4)c3)CC2)=C(c2ccc(Cl)cc2)C1 [ABT-199] | Additive --> Synergy | Synergy (Drug synergy was statistically defined by CI values less than 1) | 
O=C(Nc1ccncc1)c1cc([N+](=O)[O-])ccc1Cl [Compound T0070907] |  |  | Combination with Compound A2, MOLM13 (MOLM-13 (MLL-AF9); 7 Day Cotreatment Model): Additive (additive effect by CI equal to 1); Combination with EPZ-5676 (MOLM-13 (MLL-AF9); MOLM-13 cells, co-treatment model of Example 3): Synergy (Drug synergy was statistically defined by CI values less than 1)
CC[C@@H]1C(=O)N(C)c2cnc(Nc3ccc(C(=O)N[C@H]4CC[C@H](N5CCN(CC6CC6)CC5)CC4)cc3OC)nc2N1C(C)C [Volasertib] |  |  | Combination with Compound A2, MV4-11 (MV4-11 (MLL-AF4)): Antagonstic
Nc1nc(F)nc2c1ncn2[C@@H]1O[C@H](CO)[C@@H](O)[C@@H]1O [Fludarabine] | Synergy (Drug synergy was statistically defined by CI values less than 1) |  | 
COC1=CC(c2cc3ccccc3[nH]2)=N/C1=C\c1[nH]c(C)cc1C [Obatoclax] | Additive (additive effect by CI equal to 1) |  | 
Cn1c(=O)n(-c2ccc(C(C)(C)C#N)cc2)c2c3cc(-c4cnc5ccccc5c4)ccc3ncc21 [BEZ235] |  |  | Combination with Compound A2, MOLM13 (MOLM-13 (MLL-AF9); 7 Day Cotreatment Model): Additive (additive effect by CI equal to 1)
Nc1cccc2c1CN(C1CCC(=O)NC1=O)C2=O (centres unmarked) [Lenalidomide] | Combination Benefit |  | 
Cc1cc(/N=N/c2ccc(S(=O)(=O)Nc3ccccn3)cc2)c(N)cc1O [MS 436] |  |  | MOLM-13 (summary of combination study: EPZ-5676 + 2nd compound) (MOLM-13 cells): Synergy (considered synergistic if the IC50 value of the second compound decreased by 2-fold or more when EPZ-5676 was added as compared to the DMSO control)
Cn1ncnc1[C@H]1c2n[nH]c(=O)c3cc(F)cc(c23)N[C@@H]1c1ccc(F)cc1 [BMN 673] |  |  | MOLM-13 (summary of combination study: EPZ-5676 + 2nd compound) (MOLM-13 cells): Synergy (considered synergistic if the IC50 value of the second compound decreased by 2-fold or more when EPZ-5676 was added as compared to the DMSO control)
O=C(Nc1ccccc1-c1cn2c(CN3CCNCC3)csc2n1)c1cnc2ccccc2n1 [SRT-1720] |  | Synergy (Drug synergy was statistically defined by CI values less than 1) | MOLM-13 (summary of combination study: EPZ-5676 + 2nd compound) (MOLM-13 cells): Synergy (considered synergistic if the IC50 value of the second compound decreased by 2-fold or more when EPZ-5676 was added as compared to the DMSO control)
CC(C)C[C@H](NC(=O)[C@H](Cc1ccccc1)NC(=O)c1cnccn1)B(O)O [Velcade, bortezomib] | Combination Benefit |  | 
COc1cc(Nc2ncc(F)c(Nc3ccc4c(n3)N(COP(=O)(O)O)C(=O)C(C)(C)O4)n2)cc(OC)c1OC [Fostamatinib disodium] |  |  | MOLM-13 (summary of combination study: EPZ-5676 + 2nd compound) (MOLM-13 cells): Synergy (considered synergistic if the IC50 value of the second compound decreased by 2-fold or more when EPZ-5676 was added as compared to the DMSO control)
O=c1cc(N2CCOCC2)oc2c(-c3cccc4c3sc3ccccc34)cccc12 [NU 7441] |  |  | MOLM-13 (summary of combination study: EPZ-5676 + 2nd compound) (MOLM-13 cells): Synergy (considered synergistic if the IC50 value of the second compound decreased by 2-fold or more when EPZ-5676 was added as compared to the DMSO control)
COc1cc2nc(N3CCCN(C)CC3)nc(NC3CCN(Cc4ccccc4)CC3)c2cc1OC [BIX01294] |  |  | MOLM-13 (summary of combination study: EPZ-5676 + 2nd compound) (MOLM-13 cells): Synergy (considered synergistic if the IC50 value of the second compound decreased by 2-fold or more when EPZ-5676 was added as compared to the DMSO control)

From patent US20200030355A1, “COMBINATION THERAPY FOR TREATING CANCER” (Epizyme, Inc., priority 2014, published 2020)
